Laboratory results as given in patent US20230085307A1, “PYRIDAZINONE COMPOUND AND HERBICIDE” (NISSAN CHEMICAL CORPORATION, priority 2019, published 2023).

Assays:
barnyard grass [1] = assay: Test Example 3: herbicidal effect by foliage application, Wagner pot (Table 18, symbol H); format: in vivo, barnyard grass (Echinochloa crus-galli)
Summary of the method: (§1)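 Plants were sown in alluvial soil held under 0.1–0.5 cm standing water and grown 14 days in a greenhouse at 25–30 °C. An emulsifiable formulation, water-diluted to the set dose, was then sprayed onto the foliage, and effects were scored three weeks later using previously defined criteria.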

Chinese sprangletop = assay: Test Example 3: herbicidal effect by foliage application, Wagner pot (Table 18, symbol D); format: in vivo, chinese sprangletop (Leptochloa chinensis)
Summary of the method: as §1

rice flat sedge = assay: Test Example 3: herbicidal effect by foliage application, Wagner pot (Table 18, symbol E); format: in vivo, rice flat sedge (Cyperus iria)
Summary of the method: as §1

southern crabgrass = assay: Test Example 5: herbicidal effect by foliage application, plastic box (Table 20, symbol F); format: in vivo, southern crabgrass (Digitaria ciliaris); settings: foliage application, three weeks after application
Summary of the method: (§2)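 Plants sown in sterilized diluvial soil and grown 14 days in a greenhouse at 25° C to 30° C, then sprayed on the foliage with the compound's emulsion diluted in water to a predetermined herbicide amount. Injury to weeds and crops scored three weeks after application on a visual rating scale.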

green foxtail = assay: Test Example 5: herbicidal effect by foliage application, plastic box (Table 20, symbol G); format: in vivo, green foxtail (Setaria viridis); settings: foliage application, three weeks after application
Summary of the method: as §2

barnyard grass [2] = assay: Test Example 5: herbicidal effect by foliage application, plastic box (Table 20, symbol H); format: in vivo, barnyard grass (Echinochloa crus-galli); settings: foliage application, three weeks after application
Summary of the method: as §2

wild oat = assay: Test Example 5: herbicidal effect by foliage application, plastic box (Table 20, symbol I); format: in vivo, wild oat (Avena fatua); settings: foliage application, three weeks after application
Summary of the method: as §2

blackgrass = assay: Test Example 5: herbicidal effect by foliage application, plastic box (Table 20, symbol J); format: in vivo, blackgrass (Alopecurus myosuroides); settings: foliage application, three weeks after application
Summary of the method: as §2

Italian ryegrass = assay: Test Example 5: herbicidal effect by foliage application, plastic box (Table 20, symbol K); format: in vivo, Italian ryegrass (Lolium multiflorum); settings: foliage application, three weeks after application
Summary of the method: as §2

windgrass = assay: Test Example 5: herbicidal effect by foliage application, plastic box (Table 20, symbol L); format: in vivo, windgrass (Apera spica-venti); settings: foliage application, three weeks after application
Summary of the method: as §2

velvetleaf = assay: Test Example 5: herbicidal effect by foliage application, plastic box (Table 20, symbol M); format: in vivo, velvetleaf (Abutilon theophrasti); settings: foliage application, three weeks after application
Summary of the method: as §2

redroot pigweed = assay: Test Example 5: herbicidal effect by foliage application, plastic box (Table 20, symbol N); format: in vivo, redroot pigweed (Amaranthus retroflexus); settings: foliage application, three weeks after application
Summary of the method: as §2

lambsquarters = assay: Test Example 5: herbicidal effect by foliage application, plastic box (Table 20, symbol O); format: in vivo, lambsquarters (Chenopodium album); settings: foliage application, three weeks after application
Summary of the method: as §2

chickweed = assay: Test Example 5: herbicidal effect by foliage application, plastic box (Table 20, symbol P); format: in vivo, common chickweed (Stellaria media); settings: foliage application, three weeks after application
Summary of the method: as §2

false cleavers = assay: Test Example 5: herbicidal effect by foliage application, plastic box (Table 20, symbol Q); format: in vivo, false cleavers (Galium spurium); settings: foliage application, three weeks after application
Summary of the method: as §2

persian speedwell = assay: Test Example 5: herbicidal effect by foliage application, plastic box (Table 20, symbol R); format: in vivo, Persian speedwell (Veronica persica); settings: foliage application, three weeks after application
Summary of the method: as §2

CCS(=O)(=O)c1ccccc1-c1sc2ccccc2c1-c1c(O)c(C)nn(C)c1=O [1-038]
herbicidal effect on H (barnyard grass), rating 0-5 (barnyard grass [1]; 123 g/ha): 0 (Herbicidal rate of 5% or less (almost no effect)) | herbicidal effect on D (Chinese sprangletop), rating 0-5 (Chinese sprangletop; 123 g/ha): 4 (Herbicidal rate of 70% or more and less than 90%) | herbicidal effect on E (rice flat sedge), rating 0-5 (rice flat sedge; 123 g/ha): 3 (Herbicidal rate of 40% or more and less than 70%) | herbicidal effect grade, F: southern crabgrass (southern crabgrass; 123 g/ha): 0 (Herbicidal rate of 5% or less (almost no effect)) | herbicidal effect grade, G: green foxtail (green foxtail; 123 g/ha): 0 (Herbicidal rate of 5% or less (almost no effect)) | herbicidal effect grade, H: barnyard grass (barnyard grass [2]; 123 g/ha): 0 (Herbicidal rate of 5% or less (almost no effect)) | herbicidal effect grade, I: wild oat (wild oat; 123 g/ha): 0 (Herbicidal rate of 5% or less (almost no effect)) | herbicidal effect grade, J: blackgrass (blackgrass; 123 g/ha): 0 (Herbicidal rate of 5% or less (almost no effect)) | herbicidal effect grade, K: Italian ryegrass (Italian ryegrass; 123 g/ha): 0 (Herbicidal rate of 5% or less (almost no effect)) | herbicidal effect grade, L: windgrass (windgrass; 123 g/ha): 0 (Herbicidal rate of 5% or less (almost no effect)) | herbicidal effect grade, M: velvetleaf (velvetleaf; 123 g/ha): 0 (Herbicidal rate of 5% or less (almost no effect)) | herbicidal effect grade, N: redroot pigweed (redroot pigweed; 123 g/ha): 0 (Herbicidal rate of 5% or less (almost no effect)) | herbicidal effect grade, O: lambsquarters (lambsquarters; 123 g/ha): 0 (Herbicidal rate of 5% or less (almost no effect)) | herbicidal effect grade, P: chickweed (chickweed; 123 g/ha): 5 (Herbicidal rate of 90% or more (almost completely withered)) | herbicidal effect grade, Q: false cleavers (false cleavers; 123 g/ha): 3 (Herbicidal rate of 40% or more and less than 70%) | herbicidal effect grade, R: persian speedwell (persian speedwell; 123 g/ha): 0 (Herbicidal rate of 5% or less (almost no effect))

Cc1nn(C)c(=O)c(-c2c(-c3ccc(N(C)C)cc3)sc3ccccc23)c1O [1-039]
herbicidal effect on H (barnyard grass), rating 0-5 (barnyard grass [1]; 295 g/ha): 3 (Herbicidal rate of 40% or more and less than 70%) | herbicidal effect on D (Chinese sprangletop), rating 0-5 (Chinese sprangletop; 295 g/ha): 1 (Herbicidal rate of 5% or more and less than 20%) | herbicidal effect on E (rice flat sedge), rating 0-5 (rice flat sedge; 295 g/ha): 3 (Herbicidal rate of 40% or more and less than 70%) | herbicidal effect grade, F: southern crabgrass (southern crabgrass; 295 g/ha): 3 (Herbicidal rate of 40% or more and less than 70%) | herbicidal effect grade, G: green foxtail (green foxtail; 295 g/ha): 4 (Herbicidal rate of 70% or more and less than 90%) | herbicidal effect grade, H: barnyard grass (barnyard grass [2]; 295 g/ha): 0 (Herbicidal rate of 5% or less (almost no effect)) | herbicidal effect grade, I: wild oat (wild oat; 295 g/ha): 0 (Herbicidal rate of 5% or less (almost no effect)) | herbicidal effect grade, J: blackgrass (blackgrass; 295 g/ha): 1 (Herbicidal rate of 5% or more and less than 20%) | herbicidal effect grade, K: Italian ryegrass (Italian ryegrass; 295 g/ha): 2 (Herbicidal rate of 20% or more and less than 40%) | herbicidal effect grade, L: windgrass (windgrass; 295 g/ha): 0 (Herbicidal rate of 5% or less (almost no effect)) | herbicidal effect grade, M: velvetleaf (velvetleaf; 295 g/ha): 3 (Herbicidal rate of 40% or more and less than 70%) | herbicidal effect grade, N: redroot pigweed (redroot pigweed; 295 g/ha): 5 (Herbicidal rate of 90% or more (almost completely withered)) | herbicidal effect grade, O: lambsquarters (lambsquarters; 295 g/ha): 4 (Herbicidal rate of 70% or more and less than 90%) | herbicidal effect grade, P: chickweed (chickweed; 295 g/ha): 5 (Herbicidal rate of 90% or more (almost completely withered)) | herbicidal effect grade, Q: false cleavers (false cleavers; 295 g/ha): 0 (Herbicidal rate of 5% or less (almost no effect)) | herbicidal effect grade, R: persian speedwell (persian speedwell; 295 g/ha): 5 (Herbicidal rate of 90% or more (almost completely withered))

CCCC(=O)Oc1c(C)nn(C)c(=O)c1-c1c(-c2ccc(OC)cc2OC)sc2ccccc12 [1-071]
herbicidal effect on H (barnyard grass), rating 0-5 (barnyard grass [1]; 320 g/ha): 2 (Herbicidal rate of 20% or more and less than 40%) | herbicidal effect on D (Chinese sprangletop), rating 0-5 (Chinese sprangletop; 320 g/ha): 0 (Herbicidal rate of 5% or less (almost no effect)) | herbicidal effect on E (rice flat sedge), rating 0-5 (rice flat sedge; 320 g/ha): 0 (Herbicidal rate of 5% or less (almost no effect)) | herbicidal effect grade, F: southern crabgrass (southern crabgrass; 320 g/ha): 0 (Herbicidal rate of 5% or less (almost no effect)) | herbicidal effect grade, G: green foxtail (green foxtail; 320 g/ha): 0 (Herbicidal rate of 5% or less (almost no effect)) | herbicidal effect grade, H: barnyard grass (barnyard grass [2]; 320 g/ha): 0 (Herbicidal rate of 5% or less (almost no effect)) | herbicidal effect grade, I: wild oat (wild oat; 320 g/ha): 0 (Herbicidal rate of 5% or less (almost no effect)) | herbicidal effect grade, J: blackgrass (blackgrass; 320 g/ha): 0 (Herbicidal rate of 5% or less (almost no effect)) | herbicidal effect grade, K: Italian ryegrass (Italian ryegrass; 320 g/ha): 0 (Herbicidal rate of 5% or less (almost no effect)) | herbicidal effect grade, L: windgrass (windgrass; 320 g/ha): 0 (Herbicidal rate of 5% or less (almost no effect)) | herbicidal effect grade, M: velvetleaf (velvetleaf; 320 g/ha): 3 (Herbicidal rate of 40% or more and less than 70%) | herbicidal effect grade, N: redroot pigweed (redroot pigweed; 320 g/ha): 0 (Herbicidal rate of 5% or less (almost no effect)) | herbicidal effect grade, O: lambsquarters (lambsquarters; 320 g/ha): 0 (Herbicidal rate of 5% or less (almost no effect)) | herbicidal effect grade, P: chickweed (chickweed; 320 g/ha): 2 (Herbicidal rate of 20% or more and less than 40%) | herbicidal effect grade, Q: false cleavers (false cleavers; 320 g/ha): 0 (Herbicidal rate of 5% or less (almost no effect)) | herbicidal effect grade, R: persian speedwell (persian speedwell; 320 g/ha): 1 (Herbicidal rate of 5% or more and less than 20%)

Cc1nn(C)c(=O)c(-c2c(-c3ccoc3)sc3ccccc23)c1O [1-081]
herbicidal effect on H (barnyard grass), rating 0-5 (barnyard grass [1]; 320 g/ha): 3 (Herbicidal rate of 40% or more and less than 70%) | herbicidal effect on D (Chinese sprangletop), rating 0-5 (Chinese sprangletop; 320 g/ha): 0 (Herbicidal rate of 5% or less (almost no effect)) | herbicidal effect on E (rice flat sedge), rating 0-5 (rice flat sedge; 320 g/ha): 4 (Herbicidal rate of 70% or more and less than 90%) | herbicidal effect grade, F: southern crabgrass (southern crabgrass; 320 g/ha): 0 (Herbicidal rate of 5% or less (almost no effect)) | herbicidal effect grade, G: green foxtail (green foxtail; 320 g/ha): 0 (Herbicidal rate of 5% or less (almost no effect)) | herbicidal effect grade, H: barnyard grass (barnyard grass [2]; 320 g/ha): 0 (Herbicidal rate of 5% or less (almost no effect)) | herbicidal effect grade, I: wild oat (wild oat; 320 g/ha): 0 (Herbicidal rate of 5% or less (almost no effect)) | herbicidal effect grade, J: blackgrass (blackgrass; 320 g/ha): 0 (Herbicidal rate of 5% or less (almost no effect)) | herbicidal effect grade, K: Italian ryegrass (Italian ryegrass; 320 g/ha): 3 (Herbicidal rate of 40% or more and less than 70%) | herbicidal effect grade, L: windgrass (windgrass; 320 g/ha): 0 (Herbicidal rate of 5% or less (almost no effect)) | herbicidal effect grade, M: velvetleaf (velvetleaf; 320 g/ha): 3 (Herbicidal rate of 40% or more and less than 70%) | herbicidal effect grade, N: redroot pigweed (redroot pigweed; 320 g/ha): 2 (Herbicidal rate of 20% or more and less than 40%) | herbicidal effect grade, O: lambsquarters (lambsquarters; 320 g/ha): 0 (Herbicidal rate of 5% or less (almost no effect)) | herbicidal effect grade, P: chickweed (chickweed; 320 g/ha): 3 (Herbicidal rate of 40% or more and less than 70%) | herbicidal effect grade, Q: false cleavers (false cleavers; 320 g/ha): 2 (Herbicidal rate of 20% or more and less than 40%) | herbicidal effect grade, R: persian speedwell (persian speedwell; 320 g/ha): 4 (Herbicidal rate of 70% or more and less than 90%)

Cc1nn(C)c(=O)c(-c2c(-c3ccc4c(c3)OCCO4)sc3ccccc23)c1OS(C)(=O)=O [1-094]
herbicidal effect on H (barnyard grass), rating 0-5 (barnyard grass [1]; 320 g/ha): 3 (Herbicidal rate of 40% or more and less than 70%) | herbicidal effect on D (Chinese sprangletop), rating 0-5 (Chinese sprangletop; 320 g/ha): 0 (Herbicidal rate of 5% or less (almost no effect)) | herbicidal effect on E (rice flat sedge), rating 0-5 (rice flat sedge; 320 g/ha): 3 (Herbicidal rate of 40% or more and less than 70%) | F: southern crabgrass, herbicidal effect (southern crabgrass; AAH 320 g/ha): 0 (Herbicidal rate of 5% or less (almost no effect)) | G: green foxtail, herbicidal effect (green foxtail; AAH 320 g/ha): 0 (Herbicidal rate of 5% or less (almost no effect)) | H: barnyard grass, herbicidal effect (barnyard grass [2]; AAH 320 g/ha): 0 (Herbicidal rate of 5% or less (almost no effect)) | I: wild oat, herbicidal effect (wild oat; AAH 320 g/ha): 0 (Herbicidal rate of 5% or less (almost no effect)) | J: blackgrass, herbicidal effect (blackgrass; AAH 320 g/ha): 0 (Herbicidal rate of 5% or less (almost no effect)) | K: Italian ryegrass, herbicidal effect (Italian ryegrass; AAH 320 g/ha): 0 (Herbicidal rate of 5% or less (almost no effect)) | L: windgrass, herbicidal effect (windgrass; AAH 320 g/ha): 0 (Herbicidal rate of 5% or less (almost no effect)) | M: velvetleaf, herbicidal effect (velvetleaf; AAH 320 g/ha): 3 (Herbicidal rate of 40% or more and less than 70%) | N: redroot pigweed, herbicidal effect (redroot pigweed; AAH 320 g/ha): 1 (Herbicidal rate of 5% or more and less than 20%) | O: lambsquarters, herbicidal effect (lambsquarters; AAH 320 g/ha): 1 (Herbicidal rate of 5% or more and less than 20%) | P: chickweed, herbicidal effect (chickweed; AAH 320 g/ha): 0 (Herbicidal rate of 5% or less (almost no effect)) | Q: false cleavers, herbicidal effect (false cleavers; AAH 320 g/ha): 0 (Herbicidal rate of 5% or less (almost no effect)) | R: persian speedwell, herbicidal effect (persian speedwell; AAH 320 g/ha): 4 (Herbicidal rate of 70% or more and less than 90%)
